In patent publication US10745420B2, “Tetrahydropyrido[4,3-d]pyrimidine inhibitors of ATR kinase” (Board of Regents, The University of Texas System, priority 2017, dated 2020):
Read-outs that look alike come from different tables or passages of the source.

Key:
[1] = system: ATR-driven phosphorylation of Chk1 kinase at Serine 345; assay: pCHK1 cellular assay (CHK1 p-Ser345 AlphaScreen SureFire) in HT-29 cells; format: cell-based; details: 4-nitroquinoline N-oxide 12 uM, read-out: pCHK1 Cell IC50
Method: Inhibitors of ATR kinase are effective at inhibiting the ATR-driven phosphorylation of the downstream target Chk1 kinase at Serine 345, following the addition of 4-nitroquinoline N-oxide, a chemical used to induce DNA damage. Cellular IC50 for the inhibitors of ATR described herein were measured in HT-29 colorectal adenocarcinoma cells. HT-29 cells were routinely maintained in McCoy's 5A media (ATCC Catalog #30-2007) supplemented with 10% fetal bovine serum (Sigma Catalog # F2442) and 1× Penicillin-Streptomycin (Gibco Catalog #15140-122) using a humidified incubator (37° C., 5% CO2, and ambient O2).
In preparation for the CHK1 (p-Ser345) ALPHASCREEN® SUREFIRE® assay, cells were harvested and resuspended in McCoy's 5A media supplemented with 10% fetal bovine serum and 1× Penicillin-Streptomycin. Cells were seeded onto a 384-well black CELLSTAR® Tissue Culture Plate (VWR Catalog #89085-314) at a density of 13,000 cells/well in a volume of 40 uL. The microplate was incubated overnight (approximately 20 hours) at 37° C. with 5% CO2 and ambient O2. Stock solutions of the test compounds were prepared in 100% DMSO (Sigma, Catalog # D2650) and serially diluted 1:3 using 100% DMSO. Compounds were additionally diluted 1:33 in culture medium, and 10 ul/well were transferred to the tissue culture plate. Following the compound addition the microplate was incubated at 37° C. for 90 minutes. 10 uL of 4-nitroquinoline N-oxide (Sigma Aldrich Catalog # N8141-1G) diluted in media (final concentration 12 uM) were added to the tissue culture plate followed by a 120 minute incubation at 37° C. The cells were then washed with PBS and lysed using 10 uL/well SUREFIRE® Kit lysis buffer diluted to 1× in water (PerkinElmer Catalog # TGRCHK1S50K), with mixing on an orbital shaker at 500 rpm for 20 min at RT. Lysates were frozen at −20° C. overnight.
4 uL/well of lysate was then transferred from the tissue culture plate to a 384-well, white, low volume, PROXIPLATE™ (PerkinElmer Catalog #600828). 5 uL/well of the acceptor bead solution, prepared by diluting SUREFIRE® Kit activation buffer (PerkinElmer Catalog # TGRCHK1S50K) and ALPHASCREEN® Protein A acceptor beads (PerkinElmer Catalog #6760617R) in SUREFIRE® Kit reaction buffer (PerkinElmer Catalog # TGRCHK1S50K), were added to the lysates under subdued light and incubated at room temperature for 120 min. 2 uL/well of the donor bead solution, prepared by diluting ALPHASCREEN® Streptavidin donor beads (PerkinElmer Catalog #6760617R) in SUREFIRE® Kit dilution buffer (PerkinElmer Catalog # TGRCHK1S50K), were added under subdued light and incubated at room temperature for an addition 120 minutes. The pCHK1 ALPHASCREEN® signal was measured using an ENVISION® plate reader (PerkinElmer). IC50 values were calculated using a four-parameter logistic curve fit using Genedata Screener software. Percent of control for each compound concentration was calculated by the following formula: 100*(Compound-Min)/(Max-Min) where “Max” is the high control, DMSO, and “Min” is the low control, 5 uM ATR inhibitor.

ATR/ATRIP complex = ATR/ATRIP complex (Homo sapiens (Human), UniProt Q13535); assay: ATR/ATRIP enzymatic assay (Caliper-based); format: biochemical; details: FAM-labeled RAD17 peptide, ATP; read-out: ATR/ATRIP Enzyme IC50
ATR/ATRIP complex, sequence (Q13535 whole entry): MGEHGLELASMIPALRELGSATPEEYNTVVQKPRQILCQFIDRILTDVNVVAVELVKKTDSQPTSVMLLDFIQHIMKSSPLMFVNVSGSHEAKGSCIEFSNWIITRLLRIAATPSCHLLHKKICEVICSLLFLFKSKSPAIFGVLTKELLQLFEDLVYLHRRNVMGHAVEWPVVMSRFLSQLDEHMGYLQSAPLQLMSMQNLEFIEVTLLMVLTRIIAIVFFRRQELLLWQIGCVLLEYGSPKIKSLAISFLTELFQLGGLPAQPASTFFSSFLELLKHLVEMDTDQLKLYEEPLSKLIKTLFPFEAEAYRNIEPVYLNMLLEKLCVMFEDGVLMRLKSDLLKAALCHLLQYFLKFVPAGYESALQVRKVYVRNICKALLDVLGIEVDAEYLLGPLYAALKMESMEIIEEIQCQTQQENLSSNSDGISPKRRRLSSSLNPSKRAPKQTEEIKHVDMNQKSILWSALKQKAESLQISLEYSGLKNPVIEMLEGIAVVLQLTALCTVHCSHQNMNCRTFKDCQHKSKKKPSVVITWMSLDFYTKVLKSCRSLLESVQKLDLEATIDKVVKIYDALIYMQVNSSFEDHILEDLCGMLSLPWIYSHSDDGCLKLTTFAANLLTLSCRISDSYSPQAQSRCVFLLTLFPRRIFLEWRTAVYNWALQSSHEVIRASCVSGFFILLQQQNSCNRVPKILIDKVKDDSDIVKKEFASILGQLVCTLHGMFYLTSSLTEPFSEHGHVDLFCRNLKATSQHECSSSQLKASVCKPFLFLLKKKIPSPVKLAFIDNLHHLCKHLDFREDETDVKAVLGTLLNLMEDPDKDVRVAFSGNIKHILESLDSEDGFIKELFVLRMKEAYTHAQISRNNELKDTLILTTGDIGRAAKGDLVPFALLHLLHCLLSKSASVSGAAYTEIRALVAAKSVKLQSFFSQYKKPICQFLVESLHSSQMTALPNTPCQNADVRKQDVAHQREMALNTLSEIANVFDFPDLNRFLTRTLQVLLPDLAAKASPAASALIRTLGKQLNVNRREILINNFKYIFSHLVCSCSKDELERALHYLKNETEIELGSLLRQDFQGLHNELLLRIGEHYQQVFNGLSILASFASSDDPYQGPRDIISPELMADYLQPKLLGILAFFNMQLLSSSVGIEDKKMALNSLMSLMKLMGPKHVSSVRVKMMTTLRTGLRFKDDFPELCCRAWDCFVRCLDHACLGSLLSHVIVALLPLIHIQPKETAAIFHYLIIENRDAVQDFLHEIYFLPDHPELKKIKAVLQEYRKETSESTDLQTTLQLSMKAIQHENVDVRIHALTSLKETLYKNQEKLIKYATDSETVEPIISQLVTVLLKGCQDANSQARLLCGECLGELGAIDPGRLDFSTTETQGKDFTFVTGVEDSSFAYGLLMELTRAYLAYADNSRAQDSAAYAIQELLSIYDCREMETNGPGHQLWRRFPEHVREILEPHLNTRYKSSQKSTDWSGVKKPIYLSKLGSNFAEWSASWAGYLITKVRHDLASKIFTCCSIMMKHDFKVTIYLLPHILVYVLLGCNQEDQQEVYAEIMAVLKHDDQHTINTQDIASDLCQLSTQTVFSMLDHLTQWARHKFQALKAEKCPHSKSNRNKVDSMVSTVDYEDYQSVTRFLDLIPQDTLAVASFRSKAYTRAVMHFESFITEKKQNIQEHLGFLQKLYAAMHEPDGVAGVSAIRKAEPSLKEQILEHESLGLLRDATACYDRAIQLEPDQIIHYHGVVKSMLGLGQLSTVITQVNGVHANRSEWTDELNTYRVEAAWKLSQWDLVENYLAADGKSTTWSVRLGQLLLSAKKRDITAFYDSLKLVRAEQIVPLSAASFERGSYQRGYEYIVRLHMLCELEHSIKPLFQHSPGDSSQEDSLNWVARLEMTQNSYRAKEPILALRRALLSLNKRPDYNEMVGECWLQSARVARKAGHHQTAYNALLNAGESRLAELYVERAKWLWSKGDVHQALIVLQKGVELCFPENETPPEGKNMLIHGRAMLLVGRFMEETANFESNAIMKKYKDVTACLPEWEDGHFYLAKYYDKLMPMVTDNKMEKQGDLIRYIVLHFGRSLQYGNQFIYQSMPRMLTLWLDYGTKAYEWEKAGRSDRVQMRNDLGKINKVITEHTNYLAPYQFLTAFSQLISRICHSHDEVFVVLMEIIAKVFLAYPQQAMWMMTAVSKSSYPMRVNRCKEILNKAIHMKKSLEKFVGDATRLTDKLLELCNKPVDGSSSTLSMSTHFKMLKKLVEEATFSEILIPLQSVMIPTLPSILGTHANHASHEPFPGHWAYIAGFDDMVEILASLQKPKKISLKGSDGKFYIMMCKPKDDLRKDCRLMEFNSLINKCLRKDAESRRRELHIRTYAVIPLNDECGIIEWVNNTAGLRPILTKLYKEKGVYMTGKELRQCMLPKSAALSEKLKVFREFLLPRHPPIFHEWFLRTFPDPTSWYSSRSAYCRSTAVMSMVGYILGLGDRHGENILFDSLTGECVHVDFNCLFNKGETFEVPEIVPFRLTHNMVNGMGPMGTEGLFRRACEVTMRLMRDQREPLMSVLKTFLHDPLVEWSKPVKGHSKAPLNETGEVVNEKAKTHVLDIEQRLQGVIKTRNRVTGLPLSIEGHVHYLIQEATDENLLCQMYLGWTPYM
ATR/ATRIP complex, sequence (Q8WXE1 whole entry partner): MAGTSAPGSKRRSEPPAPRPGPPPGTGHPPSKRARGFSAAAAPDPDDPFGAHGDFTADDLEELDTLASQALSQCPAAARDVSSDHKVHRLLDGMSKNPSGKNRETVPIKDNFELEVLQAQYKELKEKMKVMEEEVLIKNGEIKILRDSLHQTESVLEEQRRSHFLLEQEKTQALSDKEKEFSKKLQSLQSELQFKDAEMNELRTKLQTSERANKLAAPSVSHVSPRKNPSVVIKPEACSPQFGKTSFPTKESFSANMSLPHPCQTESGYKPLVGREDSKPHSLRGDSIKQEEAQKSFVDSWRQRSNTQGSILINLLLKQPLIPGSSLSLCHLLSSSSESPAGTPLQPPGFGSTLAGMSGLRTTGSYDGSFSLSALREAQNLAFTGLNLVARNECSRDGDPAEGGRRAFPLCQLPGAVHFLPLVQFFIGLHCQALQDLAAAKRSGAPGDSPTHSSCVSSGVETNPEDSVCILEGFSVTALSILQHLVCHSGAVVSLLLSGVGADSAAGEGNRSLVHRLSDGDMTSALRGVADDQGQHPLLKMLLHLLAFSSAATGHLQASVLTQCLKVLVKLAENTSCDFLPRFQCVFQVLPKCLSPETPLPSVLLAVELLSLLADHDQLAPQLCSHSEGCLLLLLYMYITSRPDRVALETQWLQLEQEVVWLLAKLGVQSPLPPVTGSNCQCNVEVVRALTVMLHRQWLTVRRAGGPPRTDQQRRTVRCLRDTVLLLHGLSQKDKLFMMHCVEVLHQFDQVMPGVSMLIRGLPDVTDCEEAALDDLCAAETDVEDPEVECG
Method: Human full-length FLAG-TEV-ATR and His6-ATRIP were co-expressed in HEK293 cells. The cell pellet (20 g) was harvested and lysed in 100 mL of lysis buffer (20 mM Tris-HCl pH 7.5 at room temperature, 137 mM NaCl, 10% glycerol, 1 mM DTT, 1% (v/v) Tween-20, 0.1% (v/v) NP-40, complete protease inhibitor cocktail tablets, phosphatase inhibitor cocktail tablets, 2 mM MgCl2, 0.2 mM EDTA, and 1 mM ATP). After sonication and centrifugation, the supernatant was incubated at 4° C. for 3 hours with 1 mL of anti-FLAG resin (Sigma catalog # A2220) that had been pre-equilibrated in buffer A (20 mM Tris-HCl pH 7.5 at room temperature, 137 mM NaCl, 10% glycerol, 1 mM DTT, 2 mM MgCl2, and 0.2 mM EDTA). The sample was loaded into a column, and then washed with buffer A three times. Protein was subsequently eluted with 2 ml of buffer B (buffer A+200 μg/ml 3×FLAG peptide).
The ability of new chemical matter to inhibit the ATR catalytic activity in this ATR/ATRIP complex was assessed a Caliper-based assay. A 2× enzyme solution (i.e., 4 nM enzyme) was prepared using 1× Kinase Reaction Buffer (25 mM HEPES pH 8, 0.0055% Brij-35, 10 mM MnCl2, and 1 mM DTT). A 2× peptide solution was then prepared consisting of 10 uM FAM-labeled RAD17 peptide (GL Biochem, catalog #524315) in 1× Kinase Reaction Buffer supplemented with 2 μM ATP. 10 μL of the 2× enzyme solution was transferred to an assay plate containing 60 nL of test compound (from a 3× serial dilution) in 100% DMSO. Following a 30 minute incubation at 28° C., 10 μL of the 2× peptide solution was then transferred to the same assay plate. The reaction was allowed to incubate at 28° C. for 6 hours. After adding 30 μL of stop buffer (100 mM HEPES pH 7.5, 0.015% Brij-35, 0.2% Coating-3 Reagent (PerkinElmer, catalog # PN760050), and 50 mM EDTA), data were collected on a Caliper instrument. […] IC50 values were calculated using the following equation in XLFit: Y=Bottom+(Top-Bottom)/1+(IC50/X)^HillSlope).

[2] = Homo sapiens, HT-29, HT-29 colorectal adenocarcinoma cells

SMILES	IC50 [1, 2]	IC50 (ATR/ATRIP complex)	IC50 ([1]; HT-29 colorectal adenocarcinoma cells)
C[C@@H]1Cc2ncnc([C@H]3CCN(S(C)(=O)=O)C(C)(C)C3)c2CN1c1ccnc2[nH]ccc12 (single isomer, unassigned) [Example 48b]	79 nM		
C[C@@H]1Cc2ncnc(C3CCCN(S(C)(=O)=O)C3)c2CN1c1cc(Cl)nc2[nH]ccc12 (single isomer, unassigned) [Example 51a]		561 nM	
C[C@@H]1Cc2ncnc(C3CCCN(S(C)(=O)=O)C3)c2CN1c1cc(Cl)nc2[nH]ccc12 (single isomer, unassigned) [Example 51b]		2200 nM	
C[C@@H]1Cc2ncnc(N3CCC(S(C)(=O)=O)CC3)c2CN1c1cc(Cl)nc2[nH]ccc12 [Example 9, (R)-6-(6-Chloro-1H-pyrrolo[2,3-b]pyridin-4-yl)-7-methyl-4-(4-(methylsulfonyl)-piperidin-1-yl)-5,6,7,8-tetrahydropyrido[4,3-d]pyrimidine bis(trifluoroacetate)]			25 nM
C[C@@H]1Cc2ncnc([C@H]3CCN(S(C)(=O)=O)C3)c2CN1c1ccnc2[nH]ccc12 [Example 57b, (R)-7-methyl-4-((S)-1-(methylsulfonyl)pyrrolidin-3-yl)-6-(1H-pyrrolo[2,3-b]pyridin-4-yl)-5,6,7,8-tetrahydropyrido[4,3-d]pyrimidine]	394 nM		

The next lines start with results.

IC50 [1, 2]	IC50 (ATR/ATRIP complex)	SMILES	IC50 ([1]; HT-29 colorectal adenocarcinoma cells)
31 nM	279 nM	C[C@@H]1Cc2ncnc(N3C[C@H]4CC[C@@H](C3)[C@H]4NS(C)(=O)=O)c2CN1c1ccnc2[nH]ccc12 [Example 74, N-((1R,5S,8R)-3-((R)-7-methyl-6-(1H-pyrrolo[2,3-b]pyridin-4-yl)-5,6,7,8-tetrahydropyrido[4,3-d]pyrimidin-4-yl)-3-azabicyclo[3.2.1]octan-8-yl)methanesulfonamide]	
85 nM		C[C@@H]1Cc2ncnc(N3CCC(S(C)(=O)=O)CC3)c2CN1c1ccnc2[nH]ccc12 [Example 88, (R)-7-methyl-4-(4-(methylsulfonyl)piperidin-1-yl)-6-(1H-pyrrolo[2,3-b]pyridin-4-yl)-5,6,7,8-tetrahydropyrido[4,3-d]pyrimidine]	
